Test results published in patent publication US7531555B2, “Compositions and methods for selective inhibition of nicotine acetylcholine receptors” (University of Florida Research Foundation, Inc., priority 2003, dated 2009).
Where “and” joins values, the source holds several entries; their conditions need not be identical. Identical values can stand only once. Like-named read-outs stand apart in the source and are kept apart here.

Assays:
Format in all cases: cell-based
[1] = molecular target: T1, α7 homomeric neuronal nAChR (Rattus norvegicus, UniProt Q05941); assay: Voltage clamp of Xenopus oocytes expressing α7 nAChR
T1 construct: expressed in transfected cells; host or cells: Xenopus laevis oocytes injected with cRNA; clone from Dr. Jim Boulter (UCLA)
T1 sequence (Q05941 23-502): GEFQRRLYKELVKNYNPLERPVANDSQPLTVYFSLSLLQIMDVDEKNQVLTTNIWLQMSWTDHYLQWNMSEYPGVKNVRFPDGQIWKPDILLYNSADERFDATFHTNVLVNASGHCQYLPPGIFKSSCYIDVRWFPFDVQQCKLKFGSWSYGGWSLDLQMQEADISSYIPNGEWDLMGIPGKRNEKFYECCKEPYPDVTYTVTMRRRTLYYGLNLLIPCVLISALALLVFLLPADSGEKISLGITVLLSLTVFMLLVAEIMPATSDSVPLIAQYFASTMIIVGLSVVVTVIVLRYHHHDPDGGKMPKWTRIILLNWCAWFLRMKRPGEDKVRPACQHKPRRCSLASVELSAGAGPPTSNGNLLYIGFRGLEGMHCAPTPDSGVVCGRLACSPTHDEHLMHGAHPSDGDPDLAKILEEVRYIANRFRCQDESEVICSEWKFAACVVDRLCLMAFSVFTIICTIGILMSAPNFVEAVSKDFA
Protocol: (§1) Mature (>9 cm) female Xenopus laevis African frogs (NASCO, Ft. Atkinson, Wis.) were used as a source of oocytes. Prior to surgery, frogs were anesthetized by placing the animal in a 1.5 g/l solution of MS222 (3-aminobenzoic acid ethyl ester) for 30 minutes. Oocytes were removed from an incision made in the abdomen.
(§2) In order to remove the follicular cell layer, harvested oocytes were treated with 1.25 mg/ml collagenase from Worthington Biochemical Corporation (Freehold, N.J.) for 2 hours at room temperature in calcium-free Barth's solution (88 mM NaCl, 10 mM HEPES pH 7.6, 0.33 mM MgSO4, 0.1 mg/ml gentamicin sulfate). Subsequently, stage 5 oocytes were isolated and injected with 50 nl (5-20 ng) each of the appropriate subunit cRNAs. Recordings were made 2 to 15 days after injection.
(§3) Rat neuronal nAChR clones and mouse muscle nAChR cDNA clones were used. The wild-type clones were obtained from Dr. Jim Boulter (UCLA). The rat α6/3 (Dowell et al. J Neurosci, 2003, 23:8445-8452) clone was obtained from Michael McIntosh (University of Utah) and expressed in Xenopus oocytes in combinations with rat β2 and β3. […] The TM2 domain is understood to line the pore of the channel, with alpha helix structure. The 7′ position may actually be directed away from the actual pore lining, but this residue is highly conserved in all of the nAChR. It is valine in all of them except α9 (isoleucine) and β1, where it is alanine. The TM2 mutation in the α6/3 chimera was corrected by using QuickChange (Stratagene) according to their protocols. The corrected α6/3 chimera sequence was confirmed by restriction diagnostics and by automated fluorescent sequencing (University of Florida core facility). The corrected clone was expressed as above in Xenopus oocytes with β2 and β3 and compared to the wild-type α3 co-expressed with β2 and β3.
(§4) After linearization and purification of cloned cDNAs, RNA transcripts were prepared in vitro using the appropriate mMessage mMachine kit from Ambion Inc. (Austin, Tex.).
(§5) Electrophysiology. The majority of experiments were conducted using OpusXpress 6000A (Axon Instruments, Union City Calif.). OpusXpress is an integrated system that provides automated impalement and voltage clamp of up to eight oocytes in parallel. Cells were automatically perfused with bath solution, and agonist solutions were delivered from a 96-well plate. Both the voltage and current electrodes were filled with 3 M KCl. The agonist solutions were applied via disposable tips, which eliminated any possibility of cross-contamination. Drug applications alternated between ACh controls and experimental applications. Flow rates were set at 2 ml/min for experiments with α7 receptors and 4 ml/min for other subtypes. Cells were voltage-clamped at a holding potential of −60 mV. Data were collected at 50 Hz and filtered at 20 Hz. Agonist applications were 12 seconds in duration followed by 181-second washout periods for α7 receptors and 8 seconds with 241-second wash periods for other subtypes. For some experiments, particularly under conditions where residual inhibition precluded making repeated measurements from single cells (see below), manual oocyte recordings were made as previously described (Papke and Papke Br J of Pharmacol, 2002, 137:49-61). In brief, Warner Instruments (Hamden, Conn.) OC-725C oocyte amplifiers were used, and data were acquired with a minidigi or digidata 1200A with pClamp9 software (Axon Instruments). Sampling rates were between 10 and 20 Hz and the data were filtered at 6 Hz. Cells were voltage clamped at a holding potential of −50 mV.
(§6) Experimental protocols and data analysis. Each oocyte received two initial control applications of ACh, an experimental drug application (or co-application of ACh and TMPH), and then follow-up control application(s) of ACh. The control ACh concentrations for α1β1γδ, α3β4, α4β2, α3β2, α3β2α5, α3β2β3, α6/3β2β3 α6β4β3 and α7, receptors were 30 μM, 100 μM, 10 μM, 30 μM, 1 μM 100 μM 100 μM 100 μM and 300 μM, respectively. […]

Rat α3β4β3 [2] = molecular target: T2, Rat α3β4β3 (Rattus norvegicus, UniProt P04757+P12391+P12392); assay: Voltage clamp of Xenopus oocytes expressing α3β4β3 nAChR; parameters: Rat neuronal nAChR clones and mouse muscle nAChR cDNA clones were used; The wild-type clones were obtained from Dr. Jim Boulter (UCLA)
T2 sequence (P04757 26-499): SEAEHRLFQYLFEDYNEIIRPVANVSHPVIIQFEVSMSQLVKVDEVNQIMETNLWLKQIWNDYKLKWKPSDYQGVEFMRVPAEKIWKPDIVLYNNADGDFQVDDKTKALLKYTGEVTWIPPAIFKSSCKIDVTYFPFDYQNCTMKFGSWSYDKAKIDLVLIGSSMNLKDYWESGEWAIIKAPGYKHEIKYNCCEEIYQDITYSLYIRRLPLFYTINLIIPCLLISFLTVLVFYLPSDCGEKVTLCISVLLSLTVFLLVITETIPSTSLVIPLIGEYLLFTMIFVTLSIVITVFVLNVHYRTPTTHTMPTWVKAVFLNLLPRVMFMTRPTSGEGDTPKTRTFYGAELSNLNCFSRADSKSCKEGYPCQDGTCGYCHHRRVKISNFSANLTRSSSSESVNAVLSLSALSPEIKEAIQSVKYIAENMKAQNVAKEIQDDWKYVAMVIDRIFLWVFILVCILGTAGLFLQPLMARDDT
T2 sequence (P12392 21-495): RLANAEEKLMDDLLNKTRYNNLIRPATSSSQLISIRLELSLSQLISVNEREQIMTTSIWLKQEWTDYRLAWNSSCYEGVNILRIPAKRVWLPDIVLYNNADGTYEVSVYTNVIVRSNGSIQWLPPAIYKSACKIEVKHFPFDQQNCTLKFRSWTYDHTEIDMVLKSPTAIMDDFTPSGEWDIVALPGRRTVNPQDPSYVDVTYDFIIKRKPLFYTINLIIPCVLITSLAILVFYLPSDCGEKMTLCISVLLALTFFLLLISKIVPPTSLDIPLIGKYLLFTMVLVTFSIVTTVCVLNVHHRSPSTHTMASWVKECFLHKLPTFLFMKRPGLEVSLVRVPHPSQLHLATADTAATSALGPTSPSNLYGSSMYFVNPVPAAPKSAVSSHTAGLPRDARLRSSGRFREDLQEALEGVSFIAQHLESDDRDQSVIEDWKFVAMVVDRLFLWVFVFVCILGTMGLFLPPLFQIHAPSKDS
T2 sequence (P12391 31-464): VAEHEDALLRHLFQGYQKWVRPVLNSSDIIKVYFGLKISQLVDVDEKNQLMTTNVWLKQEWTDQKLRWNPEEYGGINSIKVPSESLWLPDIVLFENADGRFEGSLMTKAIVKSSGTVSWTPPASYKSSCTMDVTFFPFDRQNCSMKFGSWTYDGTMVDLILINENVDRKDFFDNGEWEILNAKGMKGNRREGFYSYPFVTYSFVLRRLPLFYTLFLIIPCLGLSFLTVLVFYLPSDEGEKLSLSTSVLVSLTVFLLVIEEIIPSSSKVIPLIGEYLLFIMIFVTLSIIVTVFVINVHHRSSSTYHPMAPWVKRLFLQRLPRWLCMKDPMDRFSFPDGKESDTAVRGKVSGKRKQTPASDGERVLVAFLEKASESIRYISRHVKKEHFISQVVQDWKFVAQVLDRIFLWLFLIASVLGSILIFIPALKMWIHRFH
Protocol: as §1, §2
Rat neuronal nAChR clones and mouse muscle nAChR cDNA clones were used. The wild-type clones were obtained from Dr. Jim Boulter (UCLA). The rat α6/3 (Dowell et al. J Neurosci, 2003, 23:8445-8452) clone was obtained from Michael McIntosh (University of Utah) and expressed in Xenopus oocytes in combinations with rat β2 and β3. […] The TM2 domain is understood to line the pore of the channel, with alpha helix structure. […] The corrected clone was expressed as above in Xenopus oocytes with β2 and β3 and compared to the wild-type α3 co-expressed with β2 and β3. […]

Rat α4β2 = molecular target: T3, Rat α4β2 (Rattus norvegicus, UniProt P09483+P12390); assay: Voltage clamp of Xenopus oocytes expressing α4β2 nAChR
T3 construct: expressed in transfected cells; host or cells: Xenopus laevis oocytes injected with subunit cRNAs; clones from Dr. Jim Boulter (UCLA)
T3 sequence (P09483 31-630): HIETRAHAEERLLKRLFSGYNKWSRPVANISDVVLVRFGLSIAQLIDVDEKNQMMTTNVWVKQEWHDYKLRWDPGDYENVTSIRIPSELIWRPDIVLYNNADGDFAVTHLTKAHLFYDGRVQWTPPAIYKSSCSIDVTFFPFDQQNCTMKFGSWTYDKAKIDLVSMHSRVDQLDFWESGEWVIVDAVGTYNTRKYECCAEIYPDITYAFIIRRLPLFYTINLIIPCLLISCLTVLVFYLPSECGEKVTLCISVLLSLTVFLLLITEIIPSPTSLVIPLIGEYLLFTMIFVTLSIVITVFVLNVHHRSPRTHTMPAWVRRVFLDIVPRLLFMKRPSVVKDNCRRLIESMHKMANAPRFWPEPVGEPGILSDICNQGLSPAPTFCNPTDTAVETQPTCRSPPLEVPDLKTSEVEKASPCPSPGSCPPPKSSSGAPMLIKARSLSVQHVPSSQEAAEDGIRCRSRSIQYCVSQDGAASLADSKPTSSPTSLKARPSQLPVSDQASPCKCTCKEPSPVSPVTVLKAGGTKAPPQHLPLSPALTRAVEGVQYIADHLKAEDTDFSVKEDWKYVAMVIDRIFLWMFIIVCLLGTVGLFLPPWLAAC
T3 sequence (P12390 25-500): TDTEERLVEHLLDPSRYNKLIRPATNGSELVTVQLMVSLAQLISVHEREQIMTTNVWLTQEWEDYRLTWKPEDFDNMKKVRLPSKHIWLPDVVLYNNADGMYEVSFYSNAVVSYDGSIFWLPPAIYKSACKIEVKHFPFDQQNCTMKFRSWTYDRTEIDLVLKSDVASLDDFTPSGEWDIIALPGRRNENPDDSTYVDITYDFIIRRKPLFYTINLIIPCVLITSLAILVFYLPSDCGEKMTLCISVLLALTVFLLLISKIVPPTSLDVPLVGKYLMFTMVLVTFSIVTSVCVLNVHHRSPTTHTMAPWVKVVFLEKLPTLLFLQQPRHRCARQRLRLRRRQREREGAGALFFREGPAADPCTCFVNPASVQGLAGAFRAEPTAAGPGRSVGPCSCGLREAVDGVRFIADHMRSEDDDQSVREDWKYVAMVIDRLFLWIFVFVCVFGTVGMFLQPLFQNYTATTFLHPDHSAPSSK
Protocol: as §1, §2, §3, §4, §5, §6

Rat α3β4β3 [3] = molecular target: T2, Rat α3β4β3; assay: Voltage clamp of Xenopus oocytes expressing α3β4β3 nAChR; parameters: expressed in transfected cells; host or cells: Xenopus laevis oocytes injected with subunit cRNAs; clones from Dr. Jim Boulter (UCLA)
Protocol: as §1, §2, §3, §4
as §5, with “Cells were voltage clamped at a holding potential of −50 mV.” left out

[4] = inhibition still present after 5-minute wash, read-out: IC50 (recovery)

With `CCCCCCC(=O)OC1CC(C)(C)NC(C)(C)C1` [TMPH, 2,2,6,6-tetramethylpiperidin-4-yl heptanoate] the reversibility of inhibition ([1]; after a 5-minute wash) was “significant recovery”, the IC50 ([1]; decrease in net charge, 300 μM ACh co-applied with TMPH, read-out: IC50 (area)) was 1.2 ± 0.2 µM and the IC50 ([1]; decrease in peak current amplitude, 300 μM ACh co-applied with TMPH, read-out: IC50 (peak)) was 1 ± 0.1 µM. The IC50 [1, 4] was 16 ± 4 µM, the “IC50 net charge/IC50 peak” value ([1]; ratio) was 1.2 and the “IC50 recovery/IC50 net charge” value ([1]; ratio) was 13.3. The IC50 (Rat α3β4β3 [2]; inhibition still present after 5-minute wash, read-out: IC50 (recovery), 2 site model, site with approximately 15% of the fit) was 1 µM, the “IC50 recovery/IC50 net charge, 2-site model, first value” (Rat α3β4β3 [2]; ratio, recovery site of IC50 1.0 μM) was 0.7 and the inhibition at 0.1 µM (Rat α4β2; 100 nM TMPH, after 3 applications at 10-minute intervals, read-out: inhibition after repeated co-applications of ACh with TMPH) was 90%. For the same compound, the “use-independent inhibition, TMPH applied alone” value (Rat α4β2; 1 μM TMPH alone versus co-applied with ACh) was “almost as effective as when co-applied with ACh”, the IC50 (Rat α4β2; decrease in net charge, 10 μM ACh co-applied with TMPH, single co-application, read-out: IC50 (area)) was 0.1 µM and 0.11 µM and the IC50 (Rat α4β2; decrease in peak current amplitude, 10 μM ACh co-applied with TMPH, read-out: IC50 (peak)) was 1.4 µM. For the same compound, the reversibility of inhibition (Rat α4β2; following a 5-minute wash) was “virtually no recovery”, the IC50 (Rat α4β2; from shift of the net charge inhibition curve so that 100 nM is the IC90, read-out: equilibrium IC50) was about 0.01 µM and the IC50 (Rat α4β2; [4]) was 0.25 ± 0.08 µM. For the same compound, the “IC50 net charge/IC50 peak” value (Rat α4β2; ratio) was 0.08, the “IC50 recovery/IC50 net charge” value (Rat α4β2; ratio) was 2.3 and the IC50 (Rat α3β4β3 [3]; decrease in net charge, 100 μM ACh co-applied with TMPH, read-out: IC50 (area)) was 1.4 ± 0.2 µM. For the same compound, the IC50 (Rat α3β4β3 [3]; decrease in peak current amplitude, 100 μM ACh co-applied with TMPH, read-out: IC50 (peak)) was 1.9 ± 0.2 µM, the IC50 (Rat α3β4β3 [3]; inhibition still present after 5-minute wash, read-out: IC50 (recovery), 2 site model, site with 85% of the fit) was 30 µM and the “IC50 net charge/IC50 peak” value (Rat α3β4β3 [3]; ratio) was 0.74. The “IC50 recovery/IC50 net charge, 2-site model, second value” (Rat α3β4β3 [3]; ratio, recovery site of IC50 30 μM) was 21.
